Source: patent publication US7910548B2, “Methods for treating obesity” (Amylin Pharmaceuticals, Inc., priority 1997, dated 2011)
One block for each molecule: values may come before it. Bridges are numbered along the chain shown (N, C = ends). Where no end group is shown, it is not given here.

Experiments:
[1] = Tritiated glucose gastric emptying assay; format: in vivo, rat
Text: In a phenol red method, which is described in Example 7 below, conscious rats receive by gavage an acoloric gel containing methyl cellulose and a phenol red indicator. Twenty minutes after gavage, animals are anesthetized using halothane, the stomach exposed and clamped at the pyloric and lower esophageal sphincters, removed and opened into an alkaline solution. Stomach content may be derived from the intensity of the phenol red in the alkaline solution, measured by absorbance at a wavelength of 560 nm. In a tritiated glucose method, which is described in Example 8 below, conscious rats are gavaged with tritiated glucose in water. The rats are gently restrained by the tail, the tip of which is anesthetized using lidocaine. Tritium in the plasma separated from tail blood is collected at various timepoints and detected in a beta counter. Test compounds are normally administered about one minute before gavage.
Conscious, non-fasted, Harlan Sprague Dawley rats were restrained by the tail, the tip of which was anesthetized using 2% lidocaine. Tritium in plasma separated from tail blood collected 0, 15, 30, 60, 90 and 120 minutes after gavage was detected in a beta counter.

[2] = Measurement of body weight in insulin-using Type II diabetes patients, 4-week study; format: in vivo, human; conditions: 4 weeks, change from baseline
Procedure: Study participants were males and females 25 to 78 years of age with a history of Type II diabetes mellitus requiring treatment with insulin for at least 6 months prior to the pre-screening visit. […] The study employed methods described in Thompson et al., Diabetes 46:632-636 (1997). Following a placebo lead-in period, patients were randomized to receive placebo or one of three dose regimens of ^25,28,29Pro-h-amylin (pramlintide) for 4 weeks: 30 μg QID (before breakfast, lunch, dinner and evening snack), 60 μg TID (before breakfast, lunch and dinner) or 60 μg QID (before breakfast, lunch, dinner and evening snack). Throughout the study drug period, patients self-administered four injections of study drug daily, within 15 minutes of each meal and the evening snack. During the double-blind period, patients randomized to pramlintide 60 μg TID administered placebo before the evening snack. Both pramlintide and placebo were administered as separate injections into the subcutaneous tissue of the anterior abdominal wall; the specific site was alternated after each injection. Patients were instructed to remain on their usual diet, insulin and exercise regimens throughout the study, unless otherwise instructed by the investigator, and to abstain from alcoholic beverages prior to all clinic visits.

[3] = target: amylin receptors in membranes of rat basal forebrain (nucleus accumbens and surrounding regions) (rat); assay: competition with 125I-rat amylin on rat basal forebrain membranes

Molecule: rat amylin
ED50 derived from the logistic fit (plasma tritium AUC over 30 minutes) ([1]; non-fasted Harlan Sprague Dawley rats, subcutaneous 1 minute before gavage): 0.35 μg
Absorption of the label (plasma tritium) ([1]; subcutaneous injection, 0.1-100 μg): dose-dependently slowed and/or delayed the absorption of the label

Molecule: CC[C@H](C)[C@H](NC(=O)[C@@H]1CCCN1C(=O)CNC(=O)[C@H](Cc1ccccc1)NC(=O)[C@H](CC(N)=O)NC(=O)[C@H](CC(N)=O)NC(=O)[C@H](CO)NC(=O)[C@H](CO)NC(=O)[C@H](Cc1c[nH]cn1)NC(=O)[C@@H](NC(=O)[C@H](CC(C)C)NC(=O)[C@H](Cc1ccccc1)NC(=O)[C@H](CC(N)=O)NC(=O)[C@H](C)NC(=O)[C@H](CC(C)C)NC(=O)[C@H](CCCNC(=N)N)NC(=O)[C@H](CCC(N)=O)NC(=O)[C@@H](NC(=O)[C@H](C)NC(=O)[C@@H]1CSSC[C@H](NC(=O)[C@@H](N)CCCCN)C(=O)N[C@@H](CC(N)=O)C(=O)N[C@@H]([C@@H](C)O)C(=O)N[C@@H](C)C(=O)N[C@@H]([C@@H](C)O)C(=O)N1)[C@@H](C)O)C(C)C)C(=O)N[C@@H](CC(C)C)C(=O)N1CCC[C@H]1C(=O)N1CCC[C@H]1C(=O)N[C@H](C(=O)N[C@@H](CC(N)=O)C(=O)N[C@H](C(=O)NCC(=O)N[C@@H](CO)C(=O)N[C@@H](CC(N)=O)C(=O)N[C@H](C(=O)N[C@@H](Cc1ccc(O)cc1)C(N)=O)[C@@H](C)O)C(C)C)[C@@H](C)O [Pramlintide, ^25,28,29Pro-h-amylin]
Body Weight: Change at Week 4, Median ([2]; 30 μg QID subcutaneous): -0.45 kg
Body Weight: Change at Week 4, Median ([2]; 60 μg QID subcutaneous): -0.45 kg
Body Weight: Change at Week 4, Median ([2]; 60 μg TID subcutaneous): -1.05 kg

IC50 [3]: 0.31 nM
Molecule: KDNTATKATQRLANFLVHSSNNFGAILSSTNVGSNTY (lactam 2-7; ends not checked) [^2,7Cyclo-[^2Asp, ^7Lys]-h-Amylin]
